Results: patent US9707212B2, “S-nitrosoglutathione reductase inhibitors” (Nivalis Therapeutics, Inc., priority 2010, dated 2017)

Legend:
[1] = test system: cigarette smoke-induced COPD; assay: Acute (4 day) cigarette smoke exposure COPD model; format: in vivo, female C57Bl/6 mice; conditions: oral 10 mg/kg/day for 7 days, acute 4 day smoke model
Experimental: The efficacy of GSNOR inhibitors was assessed in a mouse model of chronic obstructive pulmonary disease (COPD) induced by short duration (4 days or 11 days) of exposure to cigarette smoke. Infiltration of inflammatory cells into the bronchoalveolar lavage fluid (BALF) and BALF levels of chemokines involved in inflammation and tissue turnover/repair were measured to assess the influences of GSNOR inhibitors on some of the early events associated with the initiation and progression of COPD.
Efficacy of GSNOR inhibitors against COPD was explored using acute (4 day) and subchronic (11 day) models of cigarette smoke-induced COPD in mice. […] In animal models, changes in lung pathology are only evident after extended (several months) duration of exposure to cigarette smoke, thus making chronic models prohibitive as effective screening tools. More recently, models exploring inflammatory responses after short duration (2 weeks or less) of smoke exposure in mice have been utilized as tools for screening efficacy and mechanisms of action of novel therapeutics against COPD. The key roles of inflammation in the initiation and progression of COPD, make these short duration models relevant for initial tests of efficacy of novel therapeutics.
Female C57Bl/6 mice (N=8 per group) were exposed to cigarette smoke using a whole body exposure chamber. Mice were exposed daily for 4 consecutive days to 4 cycles of smoke from 6 sequential cigarettes (Kentucky 3R4F without filter) with a 30 minute smoke free interval between cycles. GSNOR inhibitors were administered daily via oral dosing at 10 mg/kg/day for 7 days starting 2 days prior to smoke exposure and continuing 1 day post-exposure. The effects of GSNOR inhibitors were assessed by quantitating the numbers of total cells, leukocytes, and leukocytes differentials in the BALF via light microscopy and the levels of BALF chemokines via ELISA at approximately 24 h after the last smoke exposure. The effect of GSNOR inhibitors were compared to vehicle treated controls. The PDE4 inhibitor, roflumilast, was used as the positive control for the study. A group of naïve mice (N=8) was exposed to air and used as a negative control for the study.

[2] = test system: acute DSS-induced IBD; assay: Acute prophylactic model of DSS-induced IBD in mice; format: in vivo, male C57Bl/6 mice; conditions: for effect on colon injury: mouse model of acute DSS-induced IBD; for decrease of percent of mice with severe colon injury scores via endoscopy, of vehicle control / decrease of percent of mice with severe colon injury scores via histopathology, of vehicle control: prophylactic regimen
Description: Acute and chronic models of dextran sodium sulfate (DSS)-induced IBD in mice were used to explore efficacy of GSNORi against this disease. Acute and chronic DSS-induced IBD are widely used and well characterized models that induce pathological changes in the colon similar to those observed in the human disease. In these models and in human disease, epithelial cells within the crypts of the colon are disrupted, leading to dysfunction of the epithelial barrier and the ensuing tissue inflammation, edema, and ulceration. GSNORi therapy may benefit IBD by restoring s-nitrosoglutathione (GSNO) levels, and thus prevent or reverse the epithelial barrier dysfunction. Experimental IBD was induced by administration of DSS in the drinking water of male C57Bl/6 mice (N=8 to 10 mice per group) for 6 consecutive days. GSNORi was dosed orally at doses of 0.1 to 10 mg/kg/day for 10 days starting two days prior to and continuing two days post DSS exposure. Two days post DSS exposure, the effect of GSNORi was assessed in a blinded fashion via endoscopy and histopathology using a five point scale ranging from a score=0 (normal tissue) through a score=4 (ulcerative tissue damage and marked pathological changes). Levels of circulating cytokines involved in inflammatory pathways were also assessed. The effect of GSNORi was compared to vehicle treated controls. The corticosteroid, prednisolone, was used as the positive control in this study and was administered daily at 3 mg/kg/day via oral dosing. Naïve mice (N=5) were also assessed as a normal tissue control.

[3] = Mouse pharmacokinetic (PK) study; format: in vivo, male BALB/c mice; conditions: mice; for bioavailability: male, BALB/c, mouse, plasma, PO 10 mg/kg, IV 2 mg/kg
Description: The mouse was used to determine the pharmacokinetics of compounds of the invention. This species is widely used to assess the bioavailability of compounds by administering both oral (PO) and intravenous (IV) test articles. Efficacy of the compounds of the invention was compared by assessing plasma exposure in male BALB/c mice either via IV or PO administration at the times of peak activity.
Compounds of the invention were reconstituted in a phosphate buffered saline (PBS)/10% Solutol (HS 15) clear solution resulting in a concentration of 0.2 mg/ml and administered to mice (2 mg/kg) as a single IV dose. Animals were dosed via the lateral tail vein. Blood samples were collected at designated time points (0.083, 0.25, 0.5, 1, 2, 4, 8, 16, 24 hours) by cardiac puncture under isoflurane anesthesia (up to 1 ml blood per animal). The blood was collected into tubes containing Li-Heparin. The blood samples were kept on ice until centrifugation within approximately 30 minutes of collection. The plasma was transferred into labeled polypropylene tubes and frozen at −70° C. until analyzed by LC/MS/MS.
The compounds of the invention were reconstituted in 40% Propylene Glycol/40% Propylene Carbonate/20% of a 5% Sucrose clear solution resulting in a concentration of 2 mg/ml and administered to mice (10 mg/kg) as a single oral dose via gavage. Blood samples were collected at 0.25, 0.5, 1, 2, 4, 8, 12, 16, 20 and 24 hours post dose by cardiac puncture under isoflurane anesthesia. The blood was collected in tubes containing Li-Heparin. The blood samples were kept on ice until centrifugation within approximately 30 minutes of collection. The plasma was transferred into labeled polypropylene tubes and frozen at −70° C. until analyzed by LC/MS/MS.
Plasma samples at each time point were analyzed using a LC-MS/MS with a lower limit of quantification (LLOQ) of 1 ng/ml. Plasma was analyzed to determine the amount of the compound of the invention in each sample and regression curves generated for each compounds of the invention in the relevant matrixes.
WinNonlin analysis was used for calculating PK parameters for both the IV and PO administrations: • PK parameters for IV portion—AUClast; AUCINF; T1/2; Cl; Vss; Cmax; MRT • PK parameters for PO portion—AUClast; AUCINF; T1/2; Cmax; Cl, MRT.
In addition to the above PK parameters, bioavailability (% F) was calculated.

[4] = test system: cigarette smoke-induced COPD; assay: Subchronic (11 day) cigarette smoke exposure COPD model; format: in vivo, female C57Bl/6 mice; conditions: oral 1 mg/kg/day for 11 days, subchronic 11 day model
Experimental: The efficacy of GSNOR inhibitors was assessed in a mouse model of chronic obstructive pulmonary disease (COPD) induced by short duration (4 days or 11 days) of exposure to cigarette smoke. Infiltration of inflammatory cells into the bronchoalveolar lavage fluid (BALF) and BALF levels of chemokines involved in inflammation and tissue turnover/repair were measured to assess the influences of GSNOR inhibitors on some of the early events associated with the initiation and progression of COPD. Efficacy of GSNOR inhibitors against COPD was explored using acute (4 day) and subchronic (11 day) models of cigarette smoke-induced COPD in mice. […] In animal models, changes in lung pathology are only evident after extended (several months) duration of exposure to cigarette smoke, thus making chronic models prohibitive as effective screening tools. […] The effects of GSNOR inhibitors were assessed by quantitating the number of total cells, and leukocytes differentials in the BALF via light microscopy at 24 h after the last exposure. The effect of GSNOR inhibitors were compared to vehicle treated controls and expressed as percent inhibition of the cigarette smoke induced increases in BALF cell numbers. […]

[5] = oral 10 mg/kg/day for 10 consecutive days

Row | Structure (SMILES) | bioavailability [3] | effect on colon injury [2] | decrease of percent of mice with severe colon injury scores via endoscopy, of vehicle control [2, 5] | decrease of percent of mice with severe colon injury scores via histopathology, of vehicle control [2, 5] | also measured
1 | O=c1c2ccc(O)cc2oc(C(F)(F)F)c1[C@H]1CC[C@H](C(=O)O)CC1 [Example 3, (trans)-4-(7-hydroxy-4-oxo-2-(trifluoromethyl)-4H-chromen-3-yl)cyclohexanecarboxylic acid] | 4 to 41% | attenuated colon injury | – | – | effect on BALF chemokines [1]: restored BALF chemokines towards levels observed in naïve mice; effects on BALF cells compared with roflumilast [1]: comparable to or greater than those observed for roflumilast; inhibition of smoke-induced increase in eosinophils in BALF [1]: 100%; inhibition of smoke-induced increase in leukocytes in BALF [1]: 100%; inhibition of smoke-induced increase in macrophages in BALF [1]: 100%; inhibition of smoke-induced increase in neutrophils in BALF [1]: 100%; inhibition of smoke-induced increase in total cells in BALF [1]: 100%; decrease of percent of mice with severe colon injury scores via endoscopy, of vehicle control ([2]; oral 0.1 mg/kg/day for 10 consecutive days): 38%; decrease of percent of mice with severe colon injury scores via endoscopy, of vehicle control ([2]; oral 1 mg/kg/day for 10 consecutive days): 25%
2 | O=c1[nH]c(-c2ccc(-c3c(C(F)(F)F)oc4cc(O)ccc4c3=O)cc2)no1 [Example 9, 3-(4-(7-hydroxy-4-oxo-2-(trifluoromethyl)-4H-chromen-3-yl)phenyl)-1,2,4-oxadiazol-5(4H)-one] | 4 to 41% | – | – | – | –
3 | O=c1c(-c2ccc(-c3nnn[nH]3)cc2)c(C(F)(F)F)oc2cc(O)ccc12 [Example 1, 3-(4-(1H-tetrazol-5-yl)phenyl)-7-hydroxy-2-(trifluoromethyl)-4H-chromen-4-one] | 4 to 41% | attenuated colon injury | 75% | 17% | –

Second part, led by results:

Row | bioavailability [3] | Structure (SMILES) | effect on colon injury [2] | decrease of percent of mice with severe colon injury scores via endoscopy, of vehicle control [2, 5] | decrease of percent of mice with severe colon injury scores via histopathology, of vehicle control [2, 5] | also measured
4 | ~44% | O=C(O)c1ccc(-c2c(C(F)(F)F)oc3cc(O)ccc3c2=O)c(F)c1 [Example 16, 3-fluoro-4-(7-hydroxy-4-oxo-2-(trifluoromethyl)-4H-chromen-3-yl)benzoic acid] | attenuated colon injury | 58% | 15% | effects on BAL cells compared with roflumilast [4]: comparable to those of roflumilast
5 | ~17% | O=C(O)c1ccc(-c2c(C(F)(F)F)oc3cc(O)ccc3c2=O)cc1 [comparator compound, 4-(7-hydroxy-4-oxo-2-(trifluoromethyl)-4H-chromen-3-yl)benzoic acid, reference compound] | – | – | – | clearance (Cl) relative to Example 16 [3]: about three times faster than Example 16
6 | 4 to 41% | Cc1sc2cc(O)ccc2c(=O)c1-c1ccc(-c2nnn[nH]2)cc1 [Example 12, 3-(4-(1H-tetrazol-5-yl)phenyl)-7-hydroxy-2-methyl-4H-thiochromen-4-one] | – | – | – | –
